Tested on: Rattus norvegicus
Experiment: Antihypertensive activity when administered orally to spontaneously hypertensive rats
Format: functional, organism-based

Row | Structure (SMILES) | IC50 [nM]
1 | CCOC(=O)C1=C(COCCN)NC(C)=C(C(=O)OC)C1c1ccccc1Cl (configuration not stated) [AMLODIPINE] | 2.5
2 | COC(=O)C1=C(C)NC(C)=C(C(=O)OC)C1c1ccccc1[N+](=O)[O-] [NIFEDIPINE] | 2.5
